Usually IC50 stands for the concentration at which inhibition is half-maximal. As usually defined, the Ki is the dissociation constant of the complex between target and ligand, obtained from inhibition or displacement. A lower Ki goes with higher affinity.

Results on five compounds are retold here after BindingDB's records for doi:10.1080/14756360802608351 (Ataturk University, 2009).

Serum paraoxonase/arylesterase 1, sequence (P27169 whole entry): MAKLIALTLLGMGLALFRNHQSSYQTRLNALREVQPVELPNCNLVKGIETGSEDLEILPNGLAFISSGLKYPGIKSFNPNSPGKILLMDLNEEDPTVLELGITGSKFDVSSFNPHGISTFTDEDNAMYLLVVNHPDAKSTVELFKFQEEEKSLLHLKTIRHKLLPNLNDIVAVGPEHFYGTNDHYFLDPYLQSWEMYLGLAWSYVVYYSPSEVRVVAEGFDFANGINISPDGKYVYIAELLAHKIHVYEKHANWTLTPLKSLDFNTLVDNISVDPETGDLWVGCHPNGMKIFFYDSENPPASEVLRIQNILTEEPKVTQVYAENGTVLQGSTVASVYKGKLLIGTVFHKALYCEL

For the test, the target named is Serum paraoxonase/arylesterase 1 (Homo sapiens, UniProt P27169). Kind of test: Paraoxonase Activity Assay. The following applies: pH 10.5; 25 °C. An excerpt:
The enzyme assay was based on the estimation of p-nitrophenol at 412nm. The molar extinction coefficient of p-nitrophenol was used to calculate enzyme activity.
Take `CCCC1CC(C(=O)NC(C(C)O)C2OC(SC)C(O)C(O)C2O)N(C)C1` (stereo not given) [Lincomycine]: the IC50 was 9640 µM and the inhibition constant Ki worked out at 11100 µM.

Consider `CN1C(C(=O)Nc2ccccn2)=C(O)c2sc(Cl)cc2S1(=O)=O` [Lornoxicam], for which 136 µM corresponded to half-maximal inhibition (IC50) and the affinity corresponds to a Ki of 9 µM.

On to `CC(C(=O)O)c1cccc(C(=O)c2ccccc2)c1` (stereo not given) [2-(3-benzoylphenyl)propanoic acid], for which the IC50 amounted to 6230 µM and the Ki turned out to be 13000 µM.

The compound `CN1C(C(=O)Nc2ccccn2)=C(O)c2sccc2S1(=O)=O` [Tenoxicam] returned an IC50 of 340 µM and a Ki of 306 µM.

Consider `COc1ccc2c(c1)c(CC(=O)O)c(C)n2C(=O)c1ccc(Cl)cc1` [indometacin], for which the IC50 amounted to 195 µM and the affinity, expressed as Ki, was 97 µM.
